From patent US6927208B1, “Cyclosporin with improved activity profile” (Debiopharm S.A., priority 1998, dated 2005)

What was measured:
HIV in CEM-SS cell line = experiment: protection during infection with HIV of a CEM-SS cell line (measured by the NCI); format: cell-based; settings: mean value at a derivative concentration of 2×10^−6 molar, compared with infection in the absence of Cs
Procedure: The protection of this line in the presence of a Cs derivative is compared with the infection of a line cultivated in the absence of Cs (reference control). A mean value is established at a concentration of the derivative of 2×10^−6 molar. This anti-HIV activity was measured by the NCI (National Cancer Institute) in Washington in the USA.

[1] = test system: Balb/c mouse spleen cells stimulated with treated CBA mouse spleen cells; experiment: mixed lymphocyte reaction (MLR), immunosuppressive activity; format: cell-based, mice; settings: 5 days, greater than 1.0 = less active than CsA, >20 = not immunosuppressive
Procedure: Cs is regarded as being immunosuppressive if its activity in the mixed lymphocyte reaction (MLR) is greater than 5%. The reaction (MLR) is described by T. Meo in “Immunological Methods”, L. Lefkovits and […]: 227-239 (1979). Spleen cells (0.5.10^6) originating from Balb/c mice (female, 8 to 10 weeks) are co-incubated for 5 days in the presence of treated spleen cells originating from CBA mice (females, 8 to 10 weeks). These cells were treated with mitomycin C or were irradiated at 2000 rads. […] The IC50 calculated in the MLR test is compared with the IC50 corresponding to CsA in a parallel experiment.

cyclophilin A = cyclophilin A (Homo sapiens, UniProt P62937); experiment: competitive ELISA test, affinity of Cs derivatives for cyclophilin A; format: binding; settings: 1.0 = binds as well as CsA, lower than 1.0 = binds better
Sequence of cyclophilin A (P62937 whole entry, species assumed): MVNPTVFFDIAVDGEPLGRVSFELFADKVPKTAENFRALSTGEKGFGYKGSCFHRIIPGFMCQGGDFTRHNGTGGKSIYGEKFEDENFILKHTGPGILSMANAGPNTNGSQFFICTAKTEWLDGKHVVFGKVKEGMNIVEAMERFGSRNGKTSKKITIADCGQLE
Procedure: The results of Table 1 show the affinity of the derivatives of Cs for cyclophilin A in a competitive ELISA test described by Quesniaux in Eur. J. Immunology 1987, 17, 1359-1365. In this test, during incubation with cyclophilin, Cs bound to BSA (serum albumin) is added to the Cs to be tested. The concentration required to obtain 50% inhibition (IC50) of the reference reaction in the absence of competitor is then calculated. The results are expressed by the binding index BI which is the ratio of the IC50 of the derivative and the IC50 of CsA.

Compound | Percentage HIV Protection (HIV in CEM-SS cell line) | IR (ratio of the IC50 of the MLR test of the derivative over the IC50 of cyclosporin A) [1] | BI (binding index: ratio of the IC50 of the derivative and the IC50 of CsA) (cyclophilin A)
C/C=C/C[C@@H](C)[C@@H](O)[C@H]1C(=O)N[C@@H](CC)C(=O)N(C)CC(=O)N(C)[C@@H]([C@@H](C)CC)C(=O)N[C@@H](C(C)C)C(=O)N(C)[C@@H](CC(C)C)C(=O)N[C@@H](C)C(=O)N[C@H](C)C(=O)N(C)[C@@H](CC(C)C)C(=O)N(C)[C@@H](CC(C)C)C(=O)N(C)[C@@H](C(C)C)C(=O)N1C [UNIL 007, MeIle^4-Cs] | 68.5 | >200 | 0.5
EtIle4-Cs [UNIL 013] | – | >200 | 1.3
EtPhe(4-CH2PO(OMe)2)-Cs [UNIL 014] | – | >200 | 0.5
EtVal^4-Cs [UNIL 004] | 74.9 | >200 | 1.0
MeVal^4-Cs [UNIL 002] | 66.4 | >200 | 0.6
cyclosporin A [UNIL 001] | – | 1.0 | 1.0
